Experimental data: patent publication US20150209474A1, “METHOD FOR PRODUCING AN ALGINATE COATED TITANIUM DIOXIDE SCAFFOLD” (CORTICALIS AS, priority 2012, published 2015)
Values belong to the compound of their own block, whether it stands above or below them. Ends that are not written are not given here.

How the values were obtained:
[1] = system: primary human osteoblasts; assay: Cytotoxicity assay: LDH activity in culture medium; assay type: cell-based; details: for LDH activity compared to alginate-coated scaffolds without SIM: 14-day period
Protocol: Cells from passages 7-9 were seeded on scaffolds at a density of 400.000 cells/ml. […] Scaffolds soaked with culture medium were placed in 48-well culture plates. […] The culture medium was replaced every other day. Collected medium was saved for use in cytotoxicity, alkaline phosphatase (ALP) activity and protein expression assays.

MC3T3-E1 cells [2] = assay: Gene expression of adhesion and osteoblast markers by real-time RT-PCR, cells on alginate hydrogels; assay type: cell-based, mouse; details: 50 μg/ml in 2% alginate gel
Protocol: (§1) The mouse osteoblastic cell line MC3T3-E1 (DSMZ, Braunschweig, Germany) was maintained as previously described (Tiainen H et al., 2011). Before seeding, 24-well culture plates containing crosslinked alginate hydrogels were washed with 750 μl of culture media to remove the excess of CaCl2. After evaluation of the efficiency of cell adhesion on 2% alginate gel using different cell densities, for the final experiments, cells were seeded at a density of 100 000 cells/well. Media was refreshed twice a week. Culture media was collected 24 h after seeding to study cell viability. Cells were harvested at days 14 and 21 to analyze gene expression of adhesion and osteogenic-related markers using real-time RT-PCR. Cultures were routinely observed using light microscopy (Leica DMIRB, Leica Microsystems Wetzlar GmbH, Germany).
Total RNA was isolated using Tripure® (Roche Diagnostics, Mannheim, Germany), according to the manufacturer's protocol. Total RNA was quantified at 260 nm using a Nanodrop spectrophotometer (NanoDrop Technologies, Wilmington, Del., USA).
The same amount of RNA (350 ng) was reverse transcribed to cDNA using high capacity RNA-to-cDNA kit (Applied Biosystems, Foster City, Calif.), according to the protocol of the supplier. Aliquots of each cDNA were frozen (−20° C.) until the PCR reactions were carried out.
Real-time PCR was performed in the Lightcycler 480® (Roche Diagnostics, Mannheim, Germany) using SYBR green detection. Real-time PCR was done for two reference genes (18SrRNA and glyceraldehyde-3-phosphate dehydrogenase (GAPDH)) and ten target genes (integrin alpha 8 (Itga8), integrin beta1 (Itgb1), integrin beta 3 (Itgb3), fibronectin 1 (Fn1), bone morphogenetic protein 2 (Bmp2), collagen type I (Coll-I), bone sialoprotein (Bsp), alkaline phosphatase (Alp), osteocalcin (Oc) and osteopontin (Opn)).
The primer sequences are detailed in Table 2. Reaction conditions and relative quantification have been done as previously described (Tiainen H et al., 2011).

[3] = Peptide 2 release profile from TiO2 scaffolds coated with 2% alginate gel (UV-Vis); assay type: physicochemical; details: P2-alginate-coated scaffolds, distilled water, 37° C.
Protocol: In order to mimic cell culture conditions, the samples were agitated on an orbital shaker at 200 rpm (IKA® Schüttler MTS 2, Germany) for 6 h at 37° C. and in humidity conditions (using a distilled water container). Then, samples were maintained at 37° C. in a humidified atmosphere for up to 21 days. At prefixed time points (2d, 5d, 7d, 9d, 12d, 14d, 16d, 19d and 21d), distilled water was collected and fresh distilled water was added into each well. Sample absorbances were analyzed by UV-Vis spectrophotometer (PerkinElmer® Lambda 25 UV/Vis Systems, USA) at a wavelength of 206 nm to determine the amount of peptide released. In parallel, TiO2 scaffolds coated with one layer of 2% alginate gel were used as control to subtract absorbance values obtained from degradation products from alginate.
Relative absorbance units were correlated with the amount of peptide released using a linear standard curve for each time point and the cumulative P2 released was then calculated. The experiment was performed in triplicate.

[4] = Peptide release profile from 2% alginate hydrogel (fluorescence spectroscopy); assay type: physicochemical
Protocol: To study the peptide release profile, P2 was labeled with FITC. The release of peptide contained into the 2% alginate hydrogel (50 μg/ml) was quantified by fluorescence spectroscopy. First, alginate hydrogels were washed with culture media to remove the excess of CaCl2. Then, 750 μl of cell culture media were added onto peptide loaded alginate hydrogel. The samples were incubated at 37° C. and 5% CO2 for 21 days and cell culture media was changed twice a week. At prefixed time points (24 h, 4 d, 7 d, 11 d, 14 d, 18 d and 21 d), supernatants were collected and analyzed by fluorescence spectroscopy (λ ex 490 nm and λ em 525 nm) to determine the amount of peptide released to the media. The amount of peptide released during the washing step was also measured. The experiment was performed three times, and each sample analyzed in triplicate.
Relative fluorescence units were correlated with the amount of peptide released using a linear standard curve for each time point.

MC3T3-E1 cells [5] = assay: Cell viability: LDH activity in culture media, cells on alginate hydrogels; assay type: cell-based, mouse; details: 50 μg/ml in alginate gel
Protocol: as §1
The LDH activity determined in the culture media after 24 h was taken as an indicator of membrane leakage or cell lysis. The activity of the cytosolic enzyme was estimated as previously described (Rupert M et al., 2011).

Compound: CCC(C)(C)C(=O)O[C@H]1C[C@@H](C)C=C2C=C[C@H](C)[C@H](CC[C@@H]3C[C@@H](O)CC(=O)O3)[C@H]21 [SIM, simvastatin]
LDH activity compared to alginate-coated scaffolds without SIM ([1]; scaffolds with 10 nM SIM): Neither of the SIM concentrations caused a significant increase | LDH activity compared to alginate-coated scaffolds without SIM ([1]; scaffolds with 10 μM SIM): Neither of the SIM concentrations caused a significant increase | LDH activity, scaffolds with 10 μM SIM compared to scaffolds with 10 nM SIM ([1]; throughout the 14-day period): higher

Compound: PHQPMQPQPPVHPMQPLPPQPPLPP (Synthetic biomineralizing peptide) [Peptide P6]
ALP mRNA levels compared to control (MC3T3-E1 cells [2]; 14 days): significantly decreased | Expression of Opn compared to control (MC3T3-E1 cells [2]; 14 days): decreased significantly | Fn1 mRNA compared to control (MC3T3-E1 cells [2]; 14 days): decreased significantly | Itgb1 mRNA levels compared to control (MC3T3-E1 cells [2]; 14 days): significantly decreased | Itgb3 mRNA compared to control (MC3T3-E1 cells [2]; 14 days): decreased significantly | Bmp2 relative mRNA levels (MC3T3-E1 cells [2]; 14 days of treatment): increased significantly | ALP mRNA levels compared to control (MC3T3-E1 cells [2]; 21 days): significantly decreased | Itgb1 mRNA levels compared to EMD (MC3T3-E1 cells [2]; 21 days): reduced significantly | Itgb3 and Fn1 mRNA compared to control (MC3T3-E1 cells [2]; 21 days): no differences | Oc mRNA levels compared to control (MC3T3-E1 cells [2]; 21 days): increased

amount of peptide released after 5 days [3]: 9.4 % of the cumulative amount rel | burst release of the peptide during the first 24 h of incubation ([4]; P2 FITC-labeled, 50 μg/ml in 2% alginate hydrogel, culture media, 37° C.): 54.67% | total peptide theoretically contained in the hydrogel not released after 21 days ([4]; P2 FITC-labeled, 2% alginate hydrogel, 21 days): 5.6% | peptide slowly released up to 11 days ([4]; P2 FITC-labeled, 2% alginate hydrogel, after the first 24 h, up to 11 days): 25.8% | loaded peptide released during the washing step ([4]; washing of alginate hydrogels with culture media to remove excess CaCl2): 12.7%
Compound: PLVPSQPLVPSQPLVPSQPQPPLPP [Peptide P2]
Expression of Opn compared to control (MC3T3-E1 cells [2]; 14 days): decreased significantly | Fn1 mRNA compared to control (MC3T3-E1 cells [2]; 14 days): decreased significantly | Itgb1 mRNA levels compared to control (MC3T3-E1 cells [2]; 14 days): significantly decreased | Itgb3 mRNA compared to control (MC3T3-E1 cells [2]; 14 days): decreased significantly | ALP mRNA levels compared to control (MC3T3-E1 cells [2]; 21 days): significantly decreased | Bmp2 relative mRNA levels compared to EMD (MC3T3-E1 cells [2]; 21 days): decreased | Itgb3 and Fn1 mRNA compared to control (MC3T3-E1 cells [2]; 21 days): no differences | burst release of the peptide during the first 2 days of incubation [3]: 42.8 % of the cumulative amount of P2 released after 21 days | cell viability compared to EMD (MC3T3-E1 cells [5]; after 24 h): significantly increased

Compound: PLVPSSPLVPCCPLVPCCPSPPLPP (Synthetic biomineralizing peptide) [Peptide P5]
Oc mRNA levels compared to control (MC3T3-E1 cells [2]; 21 days): increased | Expression of Itga8 compared to control (MC3T3-E1 cells [2]; "after days of culture" (number not given)): increased | Itga8 expression (MC3T3-E1 cells [2]; after 21 days of treatment): markedly | toxic effects compared to EMD and to untreated alginate gel (MC3T3-E1 cells [5]; 24 h): significantly lower
